Measurements published in paper PMC9405973, “Altered Conformational Landscape upon Sensing Guanine Nucleotides in a Disease Mutant of Elongation Factor-like 1 (EFL1) GTPase” (Biomolecules, 2022).
Several values for one entry are separate records, joined by “and”; a condition that tells them apart may be missing. Identical values can stand only once.

Target: T1, Efl1 R1086Q (Saccharomyces cerevisiae, UniProt P53893, R1086Q)
T1 construct: made in house; host or cells: Saccharomyces cerevisiae
Test: Isothermal titration calorimetry (ITC): binding of guanine nucleotides or Sdo1 to Efl1 R1086Q
Details: for Kd / -TΔSb / ΔGb / ΔHb / ΔCpb: guanine nucleotide; for ΔCpb: from ΔHb at 25–35 °C
Procedure: All calorimetric measurements were carried out using MicroCal^TM iTC200 System (GE Healthcare, Northampton, MA, USA) in a temperature range of 25–35 °C. Experiments were performed in a buffer consisting of 50 mM Tris-HCl (pH 8.0), 150 mM NaCl, 100 µM DTT, and 5% glycerol. In the titrations with Mg^2+-bound nucleotides, both the ligand and protein solutions contained 5 mM MgCl2. In the case of titrations with Mg^2+-free nucleotide, both the ligand and protein solutions were supplemented with 2 mM EDTA to sequester any residual trace of metal ions in solution. Protein samples and ligands were prepared in the exact same buffer prior to each titration. Protein concentration in the cell comprised 30–50 µM GTPase, while the ligand concentration in the syringe was 2–3 mM for GTP, MgGTP, GDP, and MgGDP. To ensure measuring the interaction of the complex Efl1 R1086Q•Sdo1 with the nucleotide, an eight-fold concentration excess of Sdo1 was used compared with that of the enzyme. […] The titration schedule consisted of 15–20 consecutive injections of the ligand with 5 min intervals between injections and a stirring rate of 700 rpm. The dilution heat of the ligand was obtained by adding the ligand to a buffer solution under identical conditions and with the same injection schedule used for the protein sample. All samples were degassed for 10 min prior to the experiment.
The binding isotherms obtained for the isolated GTPase in the presence of Mg(II) were analysed using a ternary model in which the protein can bind to the free nucleotide (G(D)TP) or that bound to one magnesium ion (MgG(D)TP); additionally, GTP may also exist in the form of Mg2GTP, which is not recognised by the protein. The derivation of this coupled-equilibria model can be reviewed in [6, 31]. The binding constant (Kb), the enthalpy change (∆Hb), and the stoichiometry (n) were obtained with the non-linear routines implemented in Origin 5.0 (OriginLab, Co., Northampton, MA, USA) using a one-binding-site model as described in [32, 33]. The heterotropic cooperativity for the binding of guanine nucleotides and Sdo1 to Efl1 R1086Q were calculated as previously described in [6, 32]. The cooperative effects of Mg(II) on the binding of guanine nucleotides to Efl1 R1086Q alone and bound to Sdo1 were calculated as follows:κ = KE-MG/KE-G κ = KES-MG/KES-G Δh = ΔHE-MG − ΔHE-G Δh = ΔHES-MG − ΔHES-G where subscripts E-MG and E-G stand for the association of the metal-bound and metal-free guanine nucleotide with mutant Efl1, respectively. Corresponding expressions applied to the heterotropic cooperativity of the binding of nucleotides to the preformed complex, Efl1•Sdo1 (ES).
The impact of Sdo1 on the binding of Efl1 R1086Q to guanine nucleotides in the presence of magnesium ions is contained in KES-MG and ΔHES-MG relative to the KE-S and ΔHE-S values; analogous ratios report the effects in the absence of Mg(II):κ = KES-MG/KE-S κ = KES-G/KE-G Δh = ΔHES-MG − ΔHE-S Δh = ΔHES-G − ΔHE-G
The corresponding cooperative entropy change was calculated as:TΔs = Δh − Δg = Δh + RTlnκ
The detailed methodology and equations to compute the changes in the accessible surface area (∆ASA) of the GTPase upon binding to nucleotides and the ∆S energetic-based parameters are reported in [6]. Briefly, the water-accessible areas (ASAs) were computed using programme NACCESS, while the changes in accessible surface area (ΔASA) upon the formation of each GTPase–nucleotide complex were estimated considering the difference between the complex and the sum of the free interacting partners. The calculated polar (ΔASAp) and apolar (ΔASAap) area changes were subsequently used to estimate the free molecular partners. […]

[1] = Effect of Mg^2+, Efl1 R1086Q − Sdo1, 25 °C
[2] = Effect of Mg^2+, Efl1 R1086Q − Sdo1, 30 °C
[3] = Effect of Mg^2+, Efl1 R1086Q − Sdo1, 35 °C
[4] = Effect of Sdo1, Efl1 R1086Q + Mg^2+, 25 °C
[5] = Effect of Sdo1, Efl1 R1086Q + Mg^2+, 30 °C
[6] = Effect of Sdo1, Efl1 R1086Q + Mg^2+, 35 °C
[7] = Effect of Sdo1, Efl1 R1086Q − Mg^2+, 25 °C
[8] = Effect of Sdo1, Efl1 R1086Q − Mg^2+, 30 °C
[9] = Effect of Sdo1, Efl1 R1086Q − Mg^2+, 35 °C

T1 sequence (P53893 whole entry R1086Q): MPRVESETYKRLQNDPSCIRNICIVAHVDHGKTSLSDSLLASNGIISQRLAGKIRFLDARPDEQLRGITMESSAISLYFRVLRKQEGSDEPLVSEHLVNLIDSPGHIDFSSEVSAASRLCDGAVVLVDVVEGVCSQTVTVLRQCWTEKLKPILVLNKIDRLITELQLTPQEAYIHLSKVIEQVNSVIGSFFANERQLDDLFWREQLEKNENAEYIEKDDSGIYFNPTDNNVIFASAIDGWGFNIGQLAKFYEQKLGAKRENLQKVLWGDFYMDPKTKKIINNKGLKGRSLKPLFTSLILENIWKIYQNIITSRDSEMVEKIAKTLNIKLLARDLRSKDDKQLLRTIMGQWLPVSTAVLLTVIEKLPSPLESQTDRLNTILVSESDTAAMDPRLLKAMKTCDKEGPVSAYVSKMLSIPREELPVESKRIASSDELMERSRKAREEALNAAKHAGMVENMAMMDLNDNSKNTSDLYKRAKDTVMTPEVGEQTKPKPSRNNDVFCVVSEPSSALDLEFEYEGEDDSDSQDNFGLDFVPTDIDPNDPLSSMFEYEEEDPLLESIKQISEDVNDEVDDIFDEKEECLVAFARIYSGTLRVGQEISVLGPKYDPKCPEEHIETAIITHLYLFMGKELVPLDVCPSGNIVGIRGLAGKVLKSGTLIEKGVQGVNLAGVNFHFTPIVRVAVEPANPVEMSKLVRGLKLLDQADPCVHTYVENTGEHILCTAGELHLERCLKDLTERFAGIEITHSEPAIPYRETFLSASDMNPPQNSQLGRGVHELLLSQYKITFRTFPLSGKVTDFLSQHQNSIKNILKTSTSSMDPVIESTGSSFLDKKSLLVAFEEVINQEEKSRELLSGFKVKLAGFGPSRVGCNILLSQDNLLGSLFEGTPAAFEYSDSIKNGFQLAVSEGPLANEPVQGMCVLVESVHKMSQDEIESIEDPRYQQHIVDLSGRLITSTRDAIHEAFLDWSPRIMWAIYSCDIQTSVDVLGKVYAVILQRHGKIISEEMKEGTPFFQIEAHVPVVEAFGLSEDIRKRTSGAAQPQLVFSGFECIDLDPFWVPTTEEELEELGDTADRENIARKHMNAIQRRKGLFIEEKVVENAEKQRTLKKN

Nc1nc2c(ncn2[C@@H]2O[C@H](COP(=O)(O)OP(=O)(O)OP(=O)(O)O)[C@@H](O)[C@H]2O)c(=O)[nH]1 [GTP]
Nconfres (number of residues changing conformation, absolute value) (+Mg^2+, 30 °C): 3 | Nconfrotb (number of routable bonds changing conformation, absolute value) (+Mg^2+, 30 °C): 21 | ΔCpconf (+Mg^2+, 30 °C): 35 cal mol^−1 K^−1 | ΔSb (+Mg^2+, 30 °C): 25 cal mol^−1 K^−1 | ΔSconf (+Mg^2+, 30 °C): 36 cal mol^−1 K^−1 | ΔSsolv (+Mg^2+, 30 °C): −2 cal mol^−1 K^−1 | −ΔASAconf (+Mg^2+, 30 °C): −157 Å^2 | -TΔs [1]: 0.5 kcal/mol | Δg [1]: -0.1 kcal/mol | Δh [1]: -0.56 kcal/mol | κ (heterotropic cooperativity) [1]: 1.0 | -TΔs [2]: 1.2 kcal/mol | Δg [2]: 0.6 kcal/mol | Δh [2]: -0.63 kcal/mol | κ (heterotropic cooperativity) [2]: 0.4 | -TΔs [3]: 1.3 kcal/mol | Δg [3]: 0.5 kcal/mol | Δh [3]: -0.78 kcal/mol | κ (heterotropic cooperativity) [3]: 0.4 | -TΔs [4]: 2.5 kcal/mol | Δg [4]: 0.3 kcal/mol | Δh [4]: -2.1 kcal/mol | κ (heterotropic cooperativity) [4]: 0.6 | -TΔs [5]: 4.8 kcal/mol | Δg [5]: 0.7 kcal/mol | Δh [5]: -4.1 kcal/mol | κ (heterotropic cooperativity) [5]: 0.3 | -TΔs [6]: 7.1 kcal/mol | Δg [6]: 0.9 kcal/mol | Δh [6]: -6.2 kcal/mol | κ (heterotropic cooperativity) [6]: 0.3 | -TΔs [7]: 5.6 kcal/mol | Δg [7]: 0.0 kcal/mol | Δh [7]: -5.6 kcal/mol | κ (heterotropic cooperativity) [7]: 1.0 | -TΔs [8]: 6.3 kcal/mol | Δg [8]: 0.7 kcal/mol | Δh [8]: -5.6 kcal/mol | κ (heterotropic cooperativity) [8]: 0.3 | -TΔs [9]: 6.5 kcal/mol | Δg [9]: 0.9 kcal/mol | Δh [9]: -5.6 kcal/mol | κ (heterotropic cooperativity) [9]: 0.2 | Kd (+Mg^2+, 25 °C): 16 ± 2 µM | Kd (+Mg^2+, 30 °C): 16 ± 3 µM | Kd (+Mg^2+, 35 °C): 13 ± 2 µM | Kd (−Mg^2+, 25 °C): 17 ± 5 µM | Kd (−Mg^2+, 30 °C): 6 ± 1 µM | Kd (−Mg^2+, 35 °C): 6 ± 1 µM | -TΔSb (+Mg^2+, 25 °C): -7.57 kcal/mol | ΔGb (+Mg^2+, 25 °C): -6.53 kcal/mol | ΔHb (+Mg^2+, 25 °C): 1.04 ± 0.05 kcal/mol | -TΔSb (+Mg^2+, 30 °C): -7.74 kcal/mol | ΔGb (+Mg^2+, 30 °C): -6.67 kcal/mol | ΔHb (+Mg^2+, 30 °C): 1.07 ± 0.03 kcal/mol | -TΔSb (+Mg^2+, 35 °C): -8.0 kcal/mol | ΔGb (+Mg^2+, 35 °C): -6.88 kcal/mol | ΔHb (+Mg^2+, 35 °C): 1.12 ± 0.06 kcal/mol | ΔCpb (+Mg^2+): 10 ± 2 cal mol^−1 K^−1 and 10 cal mol^−1 K^−1 | -TΔSb (−Mg^2+, 25 °C): -8.12 kcal/mol | ΔGb (−Mg^2+, 25 °C): -6.52 kcal/mol | ΔHb (−Mg^2+, 25 °C): 1.6 ± 0.3 kcal/mol | -TΔSb (−Mg^2+, 30 °C): -8.90 kcal/mol | ΔGb (−Mg^2+, 30 °C): -7.20 kcal/mol | ΔHb (−Mg^2+, 30 °C): 1.7 ± 0.1 kcal/mol | -TΔSb (−Mg^2+, 35 °C): -9.30 kcal/mol | ΔGb (−Mg^2+, 35 °C): -7.40 kcal/mol | ΔHb (−Mg^2+, 35 °C): 1.9 ± 0.1 kcal/mol | ΔCpb (−Mg^2+): 30 cal mol^−1 K^−1 and 30 ± 6 cal mol^−1 K^−1 | overall heat-capacity change to drive the protein into ternary complex GTPase•GTP•Sdo1 (mutant Efl1): −410 cal mol^−1 K^−1 | Nconfres (number of residues changing conformation, absolute value) (−Mg^2+, 30 °C): 4 | Nconfrotb (number of routable bonds changing conformation, absolute value) (−Mg^2+, 30 °C): 27 | ΔCpconf (−Mg^2+, 30 °C): 41 cal mol^−1 K^−1 | ΔSb (−Mg^2+, 30 °C): 29 cal mol^−1 K^−1 | ΔSconf (−Mg^2+, 30 °C): 44 cal mol^−1 K^−1 | ΔSsolv (−Mg^2+, 30 °C): −7 cal mol^−1 K^−1 | −ΔASAconf (−Mg^2+, 30 °C): −184 Å^2
